Source: US20250115591A1, “NOVEL SULFONAMIDE CARBOXAMIDE COMPOUNDS” (INFLAZOME LIMITED, priority 2017, published 2025)
Structures can show the parent of a compound that is named as a salt. Where two headings read alike, the source gives them in different places.

Experiments:
[1] = PK, intravenous administration; format: in vivo, male Sprague Dawley rats; details: male, Sprague Dawley, rat
Description: Pharmacokinetic parameters were determined in male Sprague Dawley rats (Charles River, UK, 250-300 g; or Vital River Laboratory Animal Technology Co Ltd, Beijing, China, 7-9 weeks old). Animals were individually housed during the study and maintained under a 12 h light/dark cycle. Animals had free access to food and water except that orally dosed animals were food deprived overnight prior to the study. For intravenous administration, compounds were formulated as a solution in water or DMSO:PBS [10:90] in 2 mL/kg dosing volume and administered via tail vein. For oral administration, compounds were formulated as a solution in water or DMSO:water [10:90] in 5 mL/kg dosing volume and administered orally. Serial blood samples (about 120-300 μL) were taken from each animal at each of 8 time-points post dose (0.083, 0.25, 0.5, 1, 2, 4, 8 and 24 h). Samples were held on ice for no longer than 30 minutes before centrifugation (10,000 rpm (8,385 g) for 3 minutes; or 5,696 rpm (3,000 g) for 15 minutes) for plasma generation. Plasma was frozen on dry ice prior to bioanalysis. PK parameters were generated from LC-MS/MS data using Dotmatics or Phoenix WinNonlin 6.3 software.

NLRP3 = NLRP3 (Homo sapiens (Human), UniProt Q96P20); test: THP-1 cells pyroptosis assay (LPS + nigericin, resazurin read-out); format: cell-based; details: 1 μg/ml LPS, 5 μM nigericin
Chain of NLRP3 (Q96P20 whole entry): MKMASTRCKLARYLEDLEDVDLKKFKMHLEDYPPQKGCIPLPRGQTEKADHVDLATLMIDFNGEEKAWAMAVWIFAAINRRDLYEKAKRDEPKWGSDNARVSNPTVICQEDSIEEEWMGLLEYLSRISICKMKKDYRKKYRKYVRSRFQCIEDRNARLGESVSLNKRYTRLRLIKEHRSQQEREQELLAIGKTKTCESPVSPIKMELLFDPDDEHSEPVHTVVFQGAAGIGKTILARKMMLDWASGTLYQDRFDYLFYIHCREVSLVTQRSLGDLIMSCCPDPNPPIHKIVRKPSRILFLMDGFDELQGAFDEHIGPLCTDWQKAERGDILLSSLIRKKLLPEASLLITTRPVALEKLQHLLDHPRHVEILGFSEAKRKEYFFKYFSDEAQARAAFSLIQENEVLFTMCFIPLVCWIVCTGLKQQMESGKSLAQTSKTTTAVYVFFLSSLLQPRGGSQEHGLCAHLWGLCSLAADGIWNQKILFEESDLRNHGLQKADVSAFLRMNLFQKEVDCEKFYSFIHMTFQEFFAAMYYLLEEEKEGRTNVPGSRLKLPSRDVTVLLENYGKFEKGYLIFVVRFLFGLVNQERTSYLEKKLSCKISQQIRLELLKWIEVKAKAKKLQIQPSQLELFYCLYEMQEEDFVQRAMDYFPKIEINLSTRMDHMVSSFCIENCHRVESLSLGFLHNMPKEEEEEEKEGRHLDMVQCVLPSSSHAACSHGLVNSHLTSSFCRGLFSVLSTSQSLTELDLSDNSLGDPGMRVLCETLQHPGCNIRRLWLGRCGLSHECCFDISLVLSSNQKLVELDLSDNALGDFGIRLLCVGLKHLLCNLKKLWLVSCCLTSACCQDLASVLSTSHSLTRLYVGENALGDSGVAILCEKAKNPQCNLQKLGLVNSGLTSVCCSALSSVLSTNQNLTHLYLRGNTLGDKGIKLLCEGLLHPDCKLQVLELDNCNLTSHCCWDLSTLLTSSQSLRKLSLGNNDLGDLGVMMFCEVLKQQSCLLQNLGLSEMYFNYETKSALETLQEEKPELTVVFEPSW
Description: THP-1 cells (ATCC #TIB-202) were grown in RPMI containing L-glutamine (Gibco 15 #11835) supplemented with 1 mM sodium pyruvate (Sigma #S8636) and penicillin (100 units/ml)/streptomycin (0.1 mg/ml) (Sigma #P4333) in 10% Fetal Bovine Serum (FBS) (Sigma #F0804). The cells were routinely passaged and grown to confluency (˜10^6 cells/ml). On the day of the experiment, THP-1 cells were harvested and resuspended into RPMI medium (without FBS). The cells were then counted and viability (>90%) checked by Trypan blue (Sigma #T8154). Appropriate dilutions were made to give a concentration of 625,000 cells/ml. To this diluted cell solution was added LPS (Sigma #[4524) to give a 1 μg/ml Final Assay Concentration (FAC). 40μ of the final preparation was aliquoted into each well of a 96-well plate. The plate thus prepared was used for compound screening.
The following method step-by-step assay was followed for compound screening. • 1. Seed THP-1 cells (25,000 cells/well) containing 1.0 μg/ml LPS in 40μ of RPMI medium (without FBS) in 96-well, black walled, clear bottom cell culture plates coated with poly-D-lysine (VWR #734-0317) • 2. Add 5 μl compound (8 points half-log dilution, with […]) or vehicle (DMSO 0.1% FAC) to the appropriate wells • 3. Incubate for 3 hrs at 37° C. and 5% CO2 • 4. Add 5 μl nigericin (Sigma #N7143) (FAC 5 μM) to all wells • 5. Incubate for 1 hr at 37° C. and 5% CO2 • 6. At the end of the incubation period, spin plates at 300×g for 3 mins and remove supernatant • 7. Then add 50 μl of resazurin (Sigma #R7017) (FAC 100 μM resazurin in RPMI medium without FBS) and incubate plates for a further 1-2 hrs at 37° C. and 5% CO2 • 8. Plates were read in an Envision reader at Ex 560 nm and Em 590 nm • 9. IC50 data is fitted to a non-linear regression equation (log inhibitor vs response-variable slope 4-parameters)

[2] = plasma, intravenous, dose 1 mg/kg, read-out: AUC
[3] = plasma, intravenous, dose 1 mg/kg, read-out: Cl
[4] = plasma, intravenous, dose 1 mg/kg, read-out: T1/2 (converted)
[5] = plasma, intravenous, dose 1 mg/kg, read-out: Vdss

| Compound | IC50 (NLRP3) [nM] | other results |
| --- | --- | --- |
| CCN1[C@@H]2CC[C@H]1C[C@H](S(=O)(=O)NC(=O)Nc1c3c(cc4c1CCC4)CCC3)C2 [Example 70, N-((1,2,3,5,6,7-Hexahydro-s-indacen-4-yl)carbamoyl)-8-ethyl-8-azabicyclo[3.2.1]octane-3-sulfonamide exo isomers, potassium salt] |  | AUC ([1]; in vivo, iv, 1.86 mg/kg): 2550 ng·h/mL; Vd ([1]; in vivo, iv, 1.86 mg/kg): 0.53 L/kg; clearance ([1]; in vivo, iv, 1.86 mg/kg): 12.1 mL/min/kg; half-life ([1]; in vivo, iv, 1.86 mg/kg): 1.7 h |
| CCN1CCC(S(=O)(=O)NC(=O)Nc2c3c(cc4c2CCC4)CCC3)C1 (centres unmarked) [Example 37, 1-Ethyl-N-((1,2,3,5,6,7-hexahydro-s-indacen-4-yl)carbamoyl) pyrrolidine-3-sulfonamide, potassium salt] |  | AUC ([1]; plasma, intravenous, dose 1.46 mg/kg, read-out: AUC): 2250 ng·h/mL; clearance ([1]; plasma, intravenous, dose 1.46 mg/kg, read-out: Cl): 10.8 mL/min/kg; half-life ([1]; plasma, intravenous, dose 1.46 mg/kg, read-out: T1/2 (converted)): 2.1 h; Vd ([1]; plasma, intravenous, dose 1.46 mg/kg, read-out: Vdss): 0.59 L/kg |
| COc1cc(-c2ccc3c(c2NC(=O)NS(=O)(=O)c2cn(C(C)C)c(=O)cn2)CCC3)ccn1 [Example 156, 4-Isopropyl-N-((5-(2-methoxypyridin-4-yl)-2,3-dihydro-11H-inden-4-yl)carbamoyl)-S-oxo-4,5-dihydropyrazine-2-sulfonamide] |  | AUC [1, 2]: 1520 ng·h/mL; clearance [1, 3]: 11 mL/min/kg; half-life [1, 4]: 1 h; Vd [1, 5]: 0.31 L/kg |
| O=C(Nc1c2c(cc3c1CCC3)CCC2)NS(=O)(=O)C1CN(C2CCCC2)C1 [Example 99, 1-Cyclopentyl-N-((1,2,3,5,6,7-hexahydro-s-indacen-4-yl)carbamoyl)azetidine-3-sulfonamide, potassium salt] |  | AUC [1, 2]: 1670 ng·h/mL; clearance [1, 3]: 10 mL/min/kg; half-life [1, 4]: 0.6 h; Vd [1, 5]: 0.42 L/kg |
| COCCN1CC(S(=O)(=O)NC(=O)Nc2c3c(cc4c2CCC4)CCC3)C1 [Example 88, N-((1,2,3,5,6,7-Hexahydro-s-indacen-4-yl)carbamoyl)-1-(2-methoxyethyl)azetidine-3-sulfonamide, potassium salt] | < 1000 |  |
| CC(C)n1cccc(S(=O)(=O)NC(=O)Nc2c3c(cc4c2CCC4)CCC3)c1=O [Example 182, N-((1,2,3,5,6,7-Hexahydro-s-indacen-4-yl)carbamoyl)-1-isopropyl-2-oxo-1,2-dihydropyridine-3-sulfonamide] | 1000 to 10000 |  |
| CN(C)CCn1cc(S(=O)(=O)NC(=O)Nc2c3c(cc4c2CCC4)CCC3)ccc1=O [Example 184, 1-(2-(Dimethylamino)ethyl)-N-((1,2,3,5,6,7-hexahydro-s-indacen-4-yl)carbamoyl)-6-oxo-1,6-dihydropyridine-3-sulfonamide] | 1000 to 10000 |  |
| C#CCN1CCCC(S(=O)(=O)NC(=O)Nc2c3c(cc4c2CCC4)CCC3)C1 (centres unmarked) [Example 59, N-((1,2,3,5,6,7-Hexahydro-s-indacen-4-yl)carbamoyl)-1-(prop-2-yn-1-yl)piperidine-3-sulfonamide, potassium salt] | 1000 to 10000 |  |
| O=C(Nc1c2c(cc3c1CCC3)CCC2)NS(=O)(=O)C1CCCN(C(=O)NC2CCC2)C1 (centres unmarked) [Example 27, N-Cyclobutyl-3-(N-((1,2,3,5,6,7-hexahydro-s-indacen-4-yl)carbamoyl)sulfamoyl)piperidine-1-carboxamide, potassium salt] | 1000 to 10000 |  |
| O=C(Nc1c2c(cc3c1CCC3)CCC2)NS(=O)(=O)C1CCN(C2CC2)CC1 [Example 23, 1-Cyclopropyl-N-((1,2,3,5,6,7-hexahydro-s-indacen-4-yl)carbamoyl)piperidine-4-sulfonamide, potassium salt] | 1000 to 10000 |  |
| O=C(Nc1c2c(cc3c1CCC3)CCC2)NS(=O)(=O)C1CCN(C(=O)C(F)(F)F)C1 (centres unmarked) [Example 54, N-((1,2,3,5,6,7-Hexahydro-s-indacen-4-yl)carbamoyl)-1-(2,2,2-trifluoroacetyl)pyrrolidine-3-sulfonamide, potassium salt] | 1000 to 10000 |  |
| CCN1CC(OC)C(S(=O)(=O)NC(=O)Nc2c3c(cc4c2CCC4)CCC3)C1 (centres unmarked) [Example 150, 1-Ethyl-N-((1,2,3,5,6,7-hexahydro-s-indacen-4-yl)carbamoyl)-4-methoxypyrrolidine-3-sulfonamide, potassium salt] | < 1000 |  |
| C#CCCC1(CCN2CC(S(=O)(=O)NC(=O)Nc3c4c(cc5c3CCC5)CCC4)C2)N=N1 [Example 111, 1-(2-(3-(But-3-yn-1-yl)-3H-diazirin-3-yl)ethyl)-N-((1,2,3,5,6,7-hexahydro-s-indacen-4-yl)carbamoyl)azetidine-3-sulfonamide, potassium salt] | 1000 to 10000 |  |
| O=C(Nc1c2c(cc3c1CCC3)CCC2)NS(=O)(=O)C1CCN(CCF)CC1 [Example 22, 1-(2-Fluoroethyl)-N-((1,2,3,5,6,7-hexahydro-s-indacen-4-yl)carbamoyl)piperidine-4-sulfonamide, potassium salt] | 1000 to 10000 |  |
| N#CCN1CCCC(S(=O)(=O)NC(=O)Nc2c3c(cc4c2CCC4)CCC3)C1 (centres unmarked) [Example 58, 1-(Cyanomethyl)-N-((1,2,3,5,6,7-hexahydro-s-indacen-4-yl)carbamoyl)piperidine-3-sulfonamide, potassium salt] | 1000 to 10000 |  |
| O=C(Nc1c2c(cc3c1CCC3)CCC2)NS(=O)(=O)C1CN(C2CS(=O)(=O)C2)C1 [Example 120, 1-(1,1-Dioxidothietan-3-yl)-N-((1,2,3,5,6,7-hexahydro-s-indacen-4-yl)carbamoyl)azetidine-3-sulfonamide, potassium salt] | 1000 to 10000 |  |
| CN(C)C(=O)N1CCC(S(=O)(=O)NC(=O)Nc2c3c(cc4c2CCC4)CCC3)CC1 [Example 61, 4-(N-((1,2,3,5,6,7-Hexahydro-s-indacen-4-yl)carbamoyl)sulfamoyl)-N,N-dimethylpiperidine-1-carboxamide] | 1000 to 10000 |  |
| CCN1CCC(S(=O)(=O)NC(=O)Nc2c(-c3ccnc(C#N)c3)ccc3c2CCC3)CC1 [Example 190, N-((5-(2-Cyanopyridin-4-yl)-2,3-dihydro-1H-inden-4-yl)carbamoyl)-1-ethylpiperidine-4-sulfonamide, potassium salt] | 1000 to 10000 |  |
| CN1CCCC(S(=O)(=O)NC(=O)Nc2c3c(cc4c2CCC4)CCC3)C1 (centres unmarked) [Example 60, N-((1,2,3,5,6,7-Hexahydro-s-indacen-4-yl)carbamoyl)-1-methylpiperidine-3-sulfonamide, potassium salt] | 1000 to 10000 |  |
| Cn1cc(CN2CC(S(=O)(=O)NC(=O)Nc3c4c(cc5c3CCC5)CCC4)C2)ccc1=O [Example 140, N-((1,2,3,5,6,7-Hexahydro-s-indacen-4-yl)carbamoyl)-1-((1-methyl-6-oxo-1,6-dihydropyridin-3-yl)methyl)azetidine-3-sulfonamide, potassium salt] | < 1000 |  |
| CCN1CC(S(=O)(=O)NC(=O)Nc2c3c(cc4c2CCC4)CCC3)CC1=O (centres unmarked) [Example 147, 1-Ethyl-N-((1,2,3,5,6,7-hexahydro-s-indacen-4-yl)carbamoyl)-5-oxopyrrolidine-3-sulfonamide, potassium salt] | 1000 to 10000 |  |
| CCN1CC(S(=O)(=O)NC(=O)Nc2c(-c3ccnc(OC)c3)cc(F)cc2C(C)C)C1 [Example 166, 1-Ethyl-N-((4-fluoro-2-isopropyl-6-(2-methoxypyridin-4-yl)phenyl)carbamoyl)azetidine-3-sulfonamide] | 1000 to 10000 |  |
| O=C(Nc1c2c(cc3c1CCC3)CCC2)NS(=O)(=O)C1CCN(CC(F)(F)F)CC1 [Example 67, N-((1,2,3,5,6,7-Hexahydro-s-indacen-4-yl)carbamoyl)-1-(2,2,2-trifluoroethyl)piperidine-4-sulfonamide, potassium salt] | 1000 to 10000 |  |
